Consider 4 molecules from ChEMBL document CHEMBL1124323, “Phenolic metabolites of clomiphene: [(E,Z)-2-[4-(1,2-diphenyl-2-chlorovinyl)phenoxy]ethyl]diethylamine. Preparation, electrophilicity, and effects in MCF 7 breast cancer cells” (J Med Chem, 1989).

The subject of assay [1] is MCF7S. Description: cells. The following applies: Homo sapiens.
In assay [2] the target is T1, Estrogen receptor (Homo sapiens, UniProt Q92731+P03372). Description: Displacement of [3H]-estradiol from estrogen receptor (ER). The assay is classed as protein assay. Background: Loss of bound radioactivity is the signal in a displacement assay; it reports binding, not function.
Assay [3] deals with MCF7S. Nature of the assay: Inhibition of MCF-7 cell proliferation at 5 uM. The format is functional. The following applies: Homo sapiens.
The target of assay [4] is T2, Anti-estrogen binding site (AEBS) (Homo sapiens, UniProt Q15125+Q9UBM7). Nature of the assay: Relative binding affinity for antiestrogen binding site compared to tamoxifen. The assay is classed as protein-complex assay.
T2 sequence (Q15125 whole entry): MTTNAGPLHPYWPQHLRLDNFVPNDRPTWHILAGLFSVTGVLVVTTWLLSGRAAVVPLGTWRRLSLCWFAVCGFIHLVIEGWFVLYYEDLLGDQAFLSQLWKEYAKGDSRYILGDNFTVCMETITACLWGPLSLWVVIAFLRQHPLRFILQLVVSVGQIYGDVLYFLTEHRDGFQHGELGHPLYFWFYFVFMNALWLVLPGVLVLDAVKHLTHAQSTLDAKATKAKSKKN
T2 sequence (Q9UBM7 whole entry): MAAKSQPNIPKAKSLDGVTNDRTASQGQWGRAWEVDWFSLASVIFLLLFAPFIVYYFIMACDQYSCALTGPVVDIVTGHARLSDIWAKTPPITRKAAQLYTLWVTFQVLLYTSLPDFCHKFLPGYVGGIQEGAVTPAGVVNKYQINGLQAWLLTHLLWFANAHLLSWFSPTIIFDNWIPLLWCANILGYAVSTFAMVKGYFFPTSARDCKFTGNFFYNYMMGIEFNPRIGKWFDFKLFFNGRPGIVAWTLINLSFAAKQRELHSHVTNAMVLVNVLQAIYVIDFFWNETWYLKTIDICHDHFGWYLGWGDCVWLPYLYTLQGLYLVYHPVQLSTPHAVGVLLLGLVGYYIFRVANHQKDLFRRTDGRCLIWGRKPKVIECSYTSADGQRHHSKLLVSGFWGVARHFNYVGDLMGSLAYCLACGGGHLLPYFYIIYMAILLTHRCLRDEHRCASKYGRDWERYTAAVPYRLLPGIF
The target of assay [5] is T2, Anti-estrogen binding site (AEBS). Nature of the assay: Displacement of [3H]tamoxifen from antiestrogen binding site (AEBS). The format is protein-complex assay.
In assay [6] the target is T1, Estrogen receptor. Description: Relative binding affinity for estrogen receptor compared to estradiol. The assay is classed as protein assay.

As a reminder, the inhibition is the share of the control response that was lost under treatment. For the molecule `CCN(CC)CCOc1ccc(/C(=C(/Cl)c2ccc(O)cc2)c2ccccc2)cc1`, 5 µM produced 57% inhibition in the assay on MCF7S [1].
What is called IC50 is the concentration that gives 50% inhibition. A lower IC50 goes with greater potency. For `CCN(CC)CCOc1ccc(/C(=C(/Cl)c2ccc(O)c(OC)c2)c2ccccc2)cc1`, the concentration for half-maximal inhibition (IC50) on Estrogen receptor [2] amounted to 3000 nM; in assay [5], 32 nM. In the assay with MCF7S [3], 5 µM produced 49% inhibition. The Ratio in assay [4] came to 38.
As to `CCN(CC)CCOc1ccc(/C(=C(/Cl)c2ccccc2)c2ccc(O)c(OC)c2)cc1` [3'-METHOXY-4'HYDROXYCLOMIPHENE], the IC50 was 780 nM at Estrogen receptor [2] and 22 nM in assay [5]. In addition, the Ratio amounted to 0.4 on Estrogen receptor [6] and 55 in assay [4]. Further, in the assay on MCF7S [1], testing at 5 µM gave an inhibition of 76%.
As to `CCN(CC)CCOc1ccc(C(=C(Cl)c2ccccc2)c2ccccc2)cc1` [CLOMIPHENE], in the assay with MCF7S [1], 5 µM produced 80% inhibition.
